# Measured values: US6191152A, “2-(1,2,4-triazole-1-yl)-1,3,4-thiadiazole derivatives having an effect on the C.N.S. and the heart” (EGIS Gyogyszergyar Rt., priority 1997, dated 2001)
# pIC50: −log10 of the molar value.
# Assays:
# [1] = system: isolated rat thoracic aorta; assay: Vascular relaxing effect in potassium chloride (20 mM KCl) contracted isolated rat thoracic aorta; set-up: species or system rat (male SPRD); conditions: for pIC50: Rattus norvegicus, 20 mM KCl contracted strips, 37° C., read-out: IC50 (vascular relaxation in isolated rat thoracic aorta)
# Experimental: 1. Measurement of Vascular Relaxing Effect in Potassium Chloride Contracted Isolated rat Thoracic Aorta
# Experiments were performed in thoracic aortas obtained from male SPRD rats weighing 250 to 300 g. Thoracic aortas excised from rats killed by decapitation and ensanguination were cleaned of fat and connective tissue, then were immediately placed in carbogenized TYRODE solution. The composition of the normal TYRODE solution was the following (in mM): NaCl 114.7, KCl 3.7, CaCl2 3.6, MgCl2 0.49, NaHCO3 19.9, NaH2 PO4 0.32, glucose 5.1.
# Two mm wide and 20 to 25 mm long strips were cut from the aortas along a helical line at 45° angle. Aortic strips were mounted vertically between two cotton threads in 10 ml organ chambers, the lower threads were attached to the organ chambers and the upper threads were connected to isometric force transducers. The strips were incubated under 1 g resting tension at 37° C. for 120 minutes, then resting vascular tone was recorded. Then the strips were contracted with a TYRODE solution containing 20 mM KCl. The composition of the high potassium TYRODE solution was the following (in mM): NaCl 94.7, KCl 20, CaCl2 3.6, MgCl2 0.49, NaHCO3 19.9, NaH2 PO4 0.32, glucose 5.1.
# When stable vascular tone developed, increasing doses of the test substance were added to the organ bath. The effects of each test substance were measured at least in 3 tissue preparations obtained from different animals. Decreases in vascular tension caused by the test substances were expressed as percentage changes and IC50 for each tissue preparation was determined by sigmoid (in few casses linear) curve fitting.
# For comparison, cromakalim i.e. (±)-trans-3,4-dihydro-3-hydroxy-2,2-dimethyl-4-(2-oxo-1-pyrrolidinyl)-2H-1-benzopyrane-6-carbonitrile was used.
# [2] = system: isolated Langendorff rat hearts; assay: Cardioprotective effect (time to contracture, TTC) in globally ischemic isolated Langendorff rat hearts; set-up: species or system rat (male Wistar); conditions: for TTC change vs vehicle (%) at 10 µM / TTC change vs vehicle (%) at 1 µM: Rattus norvegicus, compared to the vehicle treated group; for TTC change vs vehicle (%) at 10 µM: 10^-5 M; for TTC change vs vehicle (%) at 1 µM: 10^-6 M
# Text: 3. Measurement of Cardioprotective Effect in Ischemic rat Heart (Langendorff) Preparation
# If the blood supply to a part of the myocardium is interrupted (e.g. during myocardial infarction), then the intracellular calcium concentration starts to rise and gradually attains pathophysiological levels. Myocardial contraction is regulated by calcium, therefore, high intracellular calcium concentration results in contracture of the myocardium. In isolated rat hearts, contracture develops in about 10 minutes after starting global ischemia, and this period is called time to contracture (TTC). Any substance which can inhibit the rise of intracellular calcium concentration and the development of contracture caused by high calcium concentration during ischemia protects the myocardium from impairment i.e. it has cardioprotective effect. Under experimental conditions,the cardioprotective effect of drugs is shown by their ability to prolong TTC. The cardioprotective effect of the compounds of the invention was examined by measuring TTC in globally ischemic Langendorff rat hearts/Longman, S. D. and Hamilton, T. C., Medicinal Research Reviews, 12, 73-148 (1992)/.
# Male Wistar rats weighing 300 to 350 g were injected with 2500 IU (0.5 ml) of heparin i.p. and 10 minutes later they were anaesthetized with sodium pentobarbital/5-ethyl-5-(1-methylbutyl)-2,4,6(1H,3H,5H)-pyrimidinetrione sodium salt/in a dose of 60 mg/kg i.p. The heart was quickly excised and connected to a Langendorff apparatus via the aorta. The hearts were perfused at a constant perfusion pressure (60 mmHg) and temperature (37° C.) with a modified Krebs-Henseleit solution gassed with 95% of O2 and 5% of CO2. The composition of the modified Krebs-Henseleit solution was the following (in mM): NaCl 118, KCl 4.7, CaCl2 2.5, NaHCO3 24.88, KH2 PO4 1.18, MgSO4 1.6, EDTA 0.5 and glucose 11. Partial O2 and CO2 pressures and also pH were measured and maintained within normal limits (pO2 ==64000-77000 Pa, pCO2 =3800-4500 Pa, pH=7.3-7.45). A hole was cut in the wall of the left atrium and a water-filled plastic balloon attached to a metal cannula was then inserted into the left ventricle via the left atrium for measuring left ventricular pressure. End diastolic pressure was set to about 645 Pa, and adjusted for during the equilibration period but not later.
# After a 20 minutes equilibration period, the hearts were perfused for 10 minutes with the test substance at 10^-5 or 10^-6 concentration or with the vehicle (0.04% of dimethyl sulfoxide). Global ischemia was initiated by completely shutting off the perfusate flow and carbogenization for 25 minutes. During ischemia, the time period from the beginning of ischemia until 645 Pa increase in left ventricular end diastolic pressure was measured (TTC).
# Three experiments were performed with the test substances at each concentration and parameters of 3 additional vehicle treated hearts were measured along with the test substance.
# Individual TTC values were averaged and the effect of the test substances was expressed as a percentage change compared to the vehicle treated group. Compounds that prolong TTC are cardioprotective. As a reference substance, lemakalim i.e. (3S)-trans-3,4-dihydro-3-hydroxy-2,2-dimethyl-4-(2-oxo-1-pyrrolidinyl)-2H- 1-benzpyrane-6-carbonitrile was used.
Compound,pIC50 [1],TTC change vs vehicle (%) at 10 µM [2] [%],TTC change vs vehicle (%) at 1 µM [2] [%],vascular relaxation of isolated rat thoracic aorta (in words) [1],TTC prolongation (in words) [2]
"CSc1nc(N)n(-c2nnc(-c3ccccc3OCCCN(C(C)C)C(C)C)s2)n1 [Example 45, 2-(5-Amino-3-methylthio-1H-1,2,4-triazole-1-yl)-5-[2-/ 3-di(2-methylethyl)aminopropoxy/phenyl]-1,3,4-thiadiazole]",< 6.00,31,30,–,–
"CCN(CCO)CCOc1ccccc1-c1nnc(-n2nc(N3CCCCC3)nc2N)s1 [Example 90, 2-(5-Amino-3-piperidino-1H-1,2,4-triazole-1-yl)-5-{2-[2-/ 2-ethyl-2-(2-hydroxyethyl)amino/ethoxy]phenyl}-1,3,4-thiadiazole]",< 5.00,36,19,–,–
"Nc1nc(N2CCCCC2)nn1-c1nnc(-c2ccccc2OCCNCCN2CCOCC2)s1 [Example 91, 2-(5-Amino-3-piperidino-1H-1,2,4-triazole-1-yl)-5-[2-/ 2-(2-morpholinoethyl)amino/ethoxy]phenyl-1,3,4-thiadiazole]",< 6.00,–,58,–,–
"CC1(C)Oc2ccc(C#N)cc2[C@@H](N2CCCC2=O)[C@@H]1O [lemakalim, (3S)-trans-3,4-dihydro-3-hydroxy-2,2-dimethyl-4-(2-oxo-1-pyrrolidinyl)-2H-1-benzpyrane-6-carbonitrile, reference compound]",–,55,20,considerably relaxed isolated rat thoracic aorta,prolonged not only TTC
